Measurements as given in US20030125287A1, “Antisense oligonucleotides and methods to induce tumor cell death” (Hybridon, Inc., priority 2001, published 2003).
Oligonucleotides are written 5' to 3', each unit as a sugar letter and its base; * is a phosphorothioate linkage, no mark a phosphodiester; rarer units and linkages stand in square brackets, end groups in braces. Plain capitals give the bases only. d = 2'-deoxy (DNA)

Key:
Type in all cases: cell-based, human
MSN cells [1] = assay: Trypan blue assay (cell death) in MSN cells; conditions: for percentage of cells Trypan blue positive: MSN cells
Protocol: The role of survivin as an inhibitor of apoptosis and as a survival protein for tumors was investigated by examining whether the down-regulation of survivin was sufficient to induce cell death in MSN cells. Following transfection with lipofectin, different concentrations of survivin antisense oligonucleotide 904 (200 nM, 400 nM, 600 nM), or the mismatched oligonucleotide 1132 (400 nM and 600 nM), the number of Trypan blue positive cells (only dead cells are stained by the Trypan blue stain) were counted 48 hours after treatment. The number of dead cells was assessed relative to the lipofectin-treated control cells. In the presence of 200 nM, 400 nM, and 600 nM concentrations of antisense oligonucleotide 904, the percentage of cells that were Trypan blue positive were 52%, 59% and 62%, respectively (FIG. 4A). The mismatched oligonucleotide 1132 (400 nM and 600 nM) was similar to the lipofectin control treatment, wherein 23% (400 nM) and 22% (600 nM) of the cells were Trypan blue-positive. About 6% of the cells in the untreated control were Trypan blue positive.
In another experiment, following transfection with lipofectin, mismatched oligonucleotide 1132 (600 nM), or survivin antisense oligonucleotide 904 or 906 (600 nM), the numbers of Trypan blue positive cells (dead cells) were counted 48 h post-treatment. In the presence of 600 nM survivin antisense oligonucleotide 904 and 906, the percentages of cells that were Trypan blue positive were 73% and 81%, respectively (FIG. 4B). Upon treatment with lipofectin or the mismatched oligonucleotide 1132, only 7-11% of the cells were Trypan blue positive.
Further experiments were conducted to examine whether survivin antisense oligonucleotide-induced cell death could be blocked by the broad-spectrum caspase inhibitor zVAD-fmk. MSN cells were treated with lipofectin or 600 nM survivin antisense oligonucleotide 904, 906, or mismatch oligonucleotide 1132 alone, or co-treated with 20 μM zVAD-fmk for 48 h, and stained with 0.04% Trypan blue.
Cells were harvested 48 hours after survivin antisense treatment, stained with 0.04% Trypan blue (GIBCO), and counted on a hemocytometer. The number of Trypan blue positive cells relative to the total number of cells in each field was obtained and the data were expressed as a percentage of dead cells relative to the total cell number. Individual experiments were performed in triplicate. MSN cell studies were performed three times, while studies in TC620 cells were performed once.

TC620 cells = assay: TUNEL assay in TC620 cells
Protocol: To confirm the results of the PARP data that survivin down-regulation induced apoptosis, a TUNEL assay was performed. The TUNEL reaction preferentially labels cleaved genomic DNA generated during apoptosis, by the addition of fluorescein dUTP at strand breaks. The TUNEL assay was performed on lipofectin, mismatch oligonucleotide 1132, and survivin antisense oligonucleotide-treated TC620 cells. The percentages of TUNEL-positive cells treated with survivin antisense oligonucleotides 904 or 906 at 400 nM concentration were 52% and 54%, respectively. At 600 nM, 63% of survivin antisense oligonucleotide 904- and 906-treated TC620 cells were TUNEL-positive. Only 4% of the cells were TUNEL-positive in the presence of lipofectin or mismatch oligonucleotide 1132.
The TUNEL assay was performed to assess apoptotic cell death in survivin antisense oligonucleotide-treated TC620 cells using the In Situ Cell Death Detection Kit, Fluorescein (Roche Molecular Biochemicals, Indianapolis, Ind.). The TUNEL reaction preferentially labels cleaved genomic DNA generated during apoptosis, by the addition of fluorescein dUTP at strand breaks. Lipofectin, mismatch oligonucleotide 1132 or survivin antisense oligonucleotide-treated TC620 cells were fixed and permeabilized as described for PI staining. Cells were washed and incubated in the TUNEL reaction mixture, prepared according to the manufacture's recommendations, for 1 h at 37° C. Omission of the terminal deoxynucleotidyl transferase in the label solution served as a negative control for the TUNEL fluorescence staining. Cells were washed twice and counterstained with the DNA specific dye DAPI (1:1000 of a 1 mg/ml stock; 15 min at room temperature). Cells were examined with an Olympus 1×70 inverted microscope. For each treatment 15 random, 40×objective fields consisting of about 1000 cells were examined in duplicate chamber slides. TUNEL-positive nuclei were expressed as a percent of the total number of cells per individual field.

MSN cells [2] = assay: Propidium iodide staining, nuclear morphology of MSN cells; conditions: for nuclear morphology by PI staining: 600 nM (FIG. 9); for percentage of cells with abnormal nuclear morphology by PI staining: 600 nM alone (FIG. 9G)
Protocol: Propidium iodide (PI) staining and phase microscopy were used to assess the nuclear morphology of the survivin antisense oligonucleotide-treated MSN cells. MSN cells were treated with lipofectin (FIG. 9A), or 600 nM mismatch oligonucleotide 1132 (FIG. 9B) or survivin antisense oligonucleotide 904 (FIGS. 9C and 9E) or 906 (FIG. 9D), and stained with PI. To assess the effect on nuclear morphology of co-administration of survivin antisense oligonucleotide and the caspases inhibitor zVAD-fmk, MSN cells were treated with 600 nM survivin antisense oligonucleotide 904, 906, or mismatch oligonucleotide 1132 alone, or in the presence of 20 μM zVAD-fmk, and stained with PI (FIG. 9G).
Survivin antisense oligonucleotide-treated cells were fixed with 4% paraformaldehyde for 30 min at room temperature, washed with 1×TBS, permeabilized with 0.1% Triton X-100 for 30 min and treated with 10 μg/ml DNasc free RNase A (Sigma) for 60 min. Nuclei were stained with 200 μg /ml PI for 30 min at 4° C. and washed twice with 1×TBS. Nuclear morphology was assessed on an inverted Olympus 1×70 fluorescence microscope equipped with phase and epifluorescence optics. For each treatment about 600 nuclei were scored as normal, condensed (apoptotic), or abnormal (macronuclei, multilobed) on 15 random, 40×objective fields in duplicate. Quantification results are mean±SEM obtained from two independent experiments performed in duplicate.

[3] = 600 nM co-treated with 20 μM zVAD-fmk, 48 h (FIG. 4B)

With “d(GCACCTAGTCTCCCTGCACC) (DNA, all phosphorothioate, methylation of C not given here) [Oligo 1132, mismatched phosphorothioate control oligonucleotide, not complementary to survivin mRNA, reference compound]” the “percentage of cells Trypan blue positive” value (MSN cells [1]; 400 nM, 48 hours (FIG. 4A)) was 23%, the “percentage of cells Trypan blue positive” value (MSN cells [1]; 600 nM alone, 48 h (FIG. 4B)) was 7-11% and the “percentage of cells Trypan blue positive” value (MSN cells [1]; 600 nM, 48 hours (FIG. 4A)) was 22%. For the same substance, the “percentage of TUNEL-positive cells” value (TC620 cells; concentration not given) was 4% and the “nuclear morphology by PI staining” value (MSN cells [2]) was “normal nuclear morphology”.
For “d(TCTTGGCTCTTTCTCTGTCC) (antisense dT*dC*dT*dT*dG*dG*dC*dT*dC*dT*dT*dT*dC*dT*dC*dT*dG*dT*dC*dC) [Oligo 904, 20-mer phosphorothioate survivin antisense oligonucleotide, complementary to survivin mRNA 5248-5267]”, the “cell death, Trypan blue positive cells” value (MSN cells [1]; MSN cells (FIG. 4A)) was “dose-dependent increase in cell death”, the “percentage of cells Trypan blue positive” value (MSN cells [1]; 200 nM, 48 hours (FIG. 4A)) was 52% and the “percentage of cells Trypan blue positive” value (MSN cells [1]; 400 nM, 48 hours (FIG. 4A)) was 59%. For the same substance, the “percentage of cells Trypan blue positive” value (MSN cells [1]; 600 nM alone, 48 h (FIG. 4B)) was 73%, the “percentage of cells Trypan blue positive” value (MSN cells [1]; [3]) was 73% and the “percentage of cells Trypan blue positive” value (MSN cells [1]; 600 nM, 48 hours (FIG. 4A)) was 62%. The “percentage of TUNEL-positive cells” value (TC620 cells; 400 nM) was 52%, the “percentage of TUNEL-positive cells” value (TC620 cells; 600 nM) was 63% and the “nuclear morphology by PI staining” value (MSN cells [2]) was “abnormal multiple multilobed nuclei”. For the same substance, the “percentage of cells with abnormal nuclear morphology by PI staining” value (MSN cells [2]) was 27%.
“d(GCTTCCCAGTCACATCCTGT) (antisense dG*dC*dT*dT*dC*dC*dC*dA*dG*dT*dC*dA*dC*dA*dT*dC*dC*dT*dG*dT) [Oligo 906, 20-mer phosphorothioate survivin antisense oligonucleotide, complementary to survivin mRNA 11897-11916]” was tested, and the “percentage of cells Trypan blue positive” value (MSN cells [1]; 600 nM alone, 48 h (FIG. 4B)) was 81%, the “percentage of cells Trypan blue positive” value (MSN cells [1]; [3]) was 74% and the “percentage of TUNEL-positive cells” value (TC620 cells; 400 nM) was 54%. The “percentage of TUNEL-positive cells” value (TC620 cells; 600 nM) was 63%, the “nuclear morphology by PI staining” value (MSN cells [2]) was “abnormal multiple multilobed nuclei” and the “percentage of cells with abnormal nuclear morphology by PI staining” value (MSN cells [2]) was 31%.
